In ChEMBL document CHEMBL4033749, “Synthesis and biological evaluation of 5-fatty-acylamido-1, 3, 4-thiadiazole-2-thioglycosides” (Bioorg Med Chem Lett, 2017):
Active and inactive are the calls of the source. No cut-off for these calls is given here.

How the values were obtained:
Klebsiella pneumoniae = test: Antibacterial activity Klebsiella pneumoniae MTCC 618 by agar well method; type: functional
Bacillus subtilis = test: Antibacterial activity Bacillus subtilis MTCC 441 by agar well method; type: functional
Staphylococcus aureus = test: Antibacterial activity Staphylococcus aureus MTCC 96 by agar well method; type: functional
[1] = system: Staphylococcus epidermidis; test: Antibacterial activity Staphylococcus epidermidis MTCC 9041 by agar well method; type: functional
Escherichia coli = test: Antibacterial activity Escherichia coli MTCC 443 by agar well method; type: functional
Pseudomonas aeruginosa = test: Antibacterial activity Pseudomonas aeruginosa MTCC 1688 by agar well method; type: functional
SK-OV-3 = test: Cytotoxicity against human SKOV3 cells incubated for 24 hrs by MTT asasy; type: functional, cell-based; conditions: sk-ov-3
HeLa = test: Cytotoxicity against human HeLa cells incubated for 24 hrs by MTT asasy; type: functional, cell-based; conditions: Homo sapiens, HeLa, 24 h; read-out: IC50
MDA-MB-231 = test: Cytotoxicity against human MDA-MB-231 cells incubated for 24 hrs by MTT asasy; type: functional, cell-based; conditions: Homo sapiens, MDA-MB-231, 24 h; read-out: IC50
DU-145 = test: Cytotoxicity against human DU145 cells incubated for 24 hrs by MTT asasy; type: functional, cell-based; conditions: Homo sapiens, DU-145, 24 h; read-out: IC50
CHO-K1 = test: Cytotoxicity against CHOK1 cells incubated for 24 hrs by MTT asasy; type: cell-based, Cricetulus griseus; conditions: Cricetulus griseus, CHO-K1, 24 h; read-out: IC50

For `CCCCCCCCCCCCCCCC(=O)Nc1nnc(S[C@@H]2O[C@H](COC(C)=O)[C@H](OC(C)=O)[C@H](OC(C)=O)[C@H]2OC(C)=O)s1`, the MIC (Klebsiella pneumoniae) was “inactive”, the MIC (Bacillus subtilis) was “inactive” and the MIC (Staphylococcus aureus) was “inactive”. For the same molecule, the MIC [1] was “inactive”, the MIC (Escherichia coli) was “inactive” and the MIC (Pseudomonas aeruginosa) was “inactive”. The IC50 (SK-OV-3) was “Not Active”, the IC50 (HeLa) was 58.3 µM and the IC50 (MDA-MB-231) was 25.4 µM. The IC50 (DU-145) was 30.1 µM and the IC50 (CHO-K1) was 90.4 µM.
